The subject of one data set is two-spotted spider mites. Put plainly: Insecticidal test on two-spotted spider mites (Test Example 1). In kind it is in vivo. Particulars: Tetranychus urticae, 312 h, read-out: preventive value. The source says:
Test Example 1 Insecticidal Test on Two-Spotted Spider Mites

[1] abbreviates: wettable powder diluted to 500 ppm active ingredient, soybean seedlings inoculated with adult mites immersed, survivors counted after 13 days, Equation 1.

Like-named read-outs stand apart in the source and are kept apart here.

Usually melting point stands for the temperature of the solid-liquid transition. With `CCSc1cc(-c2ccc(Cl)cc2Cl)ccc1C#N`, the melting point is 89 to 92 °C.

On to `CSc1cc(-c2ccccc2)c(C#N)c(N)c1C#N` [Comparative Compound 1, 2-amino-6-methylthio-4-phenyl-benzene-1,3-dicarbonitrile, reference compound], for which, in the data set on two-spotted spider mites (setting [1]), the pest or weed control at 500 µg/mL is 0%.

`CSc1cc(-c2ccccc2)c(C#N)c(N)c1[N+](=O)[O-]` [Comparative Compound 2, 2-amino-6-phenyl-4-methylthio-3-nitrobenzonitrile, reference compound]: the pest or weed control at 500 µg/mL in the data set on two-spotted spider mites (setting [1]) was 0%.

`C=CCSc1cc(-c2ccc(C(F)(F)F)cc2)ccc1C#N` [Compound I-42, 2-(2-propenylthio)-4-(4-trifluoromethylphenyl)benzonitrile] showed a melting point of 89 to 90 °C. Besides, in the data set with two-spotted spider mites (in Glycine max), the pest or weed control at 500 µg/mL was ≥ 90%.

Turning to `CCOCOc1ccc(-c2ccc(C(F)(F)F)cc2)cc1SCC(F)(F)F` [Compound I-213, [2-ethoxymethoxy-5-(4-trifluoromethylphenyl)phenyl] 2,2,2-trifluoroethyl sulfide], the pest or weed control at 500 µg/mL with two-spotted spider mites (in Glycine max) is ≥ 90%.

The compound `CCCSc1cc(-c2ccc(C(F)(F)F)cc2)c(F)cc1[N+](=O)[O-]` [Compound I-221, [4-fluoro-2-nitro-5-(4-trifluoromethylphenyl)phenyl] propyl sulfide] gave a melting point of 57 to 59 °C. Also, the pest or weed control at 500 µg/mL in the data set with two-spotted spider mites (in Glycine max) is ≥ 90%.

In the case of `N#Cc1ccc(-c2n[nH]cc2C(F)(F)F)cc1SCC(F)(F)F` [Compound V-639, 2-(2,2,2-trifluoroethylthio)-4-(4-trifluoromethylpyrazolyl)benzonitrile], the melting point was in the range of 90 to 91 °C. Also, the pest or weed control at 500 µg/mL in the data set with two-spotted spider mites (setting [1]) is ≥ 90%.

For the compound `N#Cc1ccc(-c2ccc(C(F)(F)F)cn2)cc1SCC1CC1` [I I-5, 2-cyclopropylmethylthio-4-(5-trifluoromethylpyridin-2-yl)benzonitrile], the melting point is 135 to 136 °C. The pest or weed control at 500 µg/mL with two-spotted spider mites (setting [1]) was ≥ 90%.

For `N#Cc1ccc(-c2ccc(Cl)s2)cc1SCC1CC1` [I V-5, 4-(5-chlorothiophen-2-yl)-2-cyclopropylmethylthiobenzonitrile], the melting point was in the range of 123 to 124 °C. Further, in the data set on two-spotted spider mites (setting [1]), the pest or weed control at 500 µg/mL was ≥ 90%.

These data come from patent US7767626B2, “3-arylphenyl sulfide derivative and insecticide and miticide” (Kumiai Chemical Industry Co., Ltd., priority 1998, dated 2010).
